Reference: US6861391B1, “Trifluoromethyl-substituted spirocyclic ketoenols” (Bayer Aktiengesellschaft, priority 1999, dated 2005)

How the values were obtained:
Myzus persicae = experiment: Critical concentration test/root-systemic action; format: in vivo; conditions: 1.25 ppm in soil; root-systemic, broad beans; populated after 7 days, evaluated after a further 8 days
Protocol: Critical concentration test/root-systemic action Test insect: Myzus persicae Solvent: 4 parts by weight of acetone Emulsifier: 1 part by weight of alkylaryl polyglycol ether To produce a suitable preparation of active compound, 1 part by weight of active compound is mixed with the stated amount of solvent, the stated amount of emulsifier is added and the concentrate is diluted with water to the desired concentration. The preparation of active compound is mixed intimately with the soil. The concentration of the active compound in the preparation is virtually immaterial, only the amount by weight of active compound per volume unit of soil, which is stated in ppm […], being decisive. The treated soil is filled into 250 ml pots and pregerminated broad beans are planted in these. Thus, the active compound can be taken up by the plant roots from the soil and then transported into the leaves. To assess the root-systemic effect, the plants are populated with the above-mentioned test animals after 7 days. After a further 8 days, evaluation is carried out by counting or estimating the number of dead animals. The root-systemic action of the active compound is derived from the number of animals killed. It is 100% if all test animals have been killed and 0% when the number of test insects that are still alive is the same as for the untreated control.

[1] = system: peach aphids (Myzus persicae); experiment: Myzus test (cabbage leaf dip); format: in vivo; conditions: cabbage leaves dipped
Protocol: Myzus test Solvent: 7 parts by weight of dimethylformamide Emulsifier: 1 part by weight of alkylaryl polyglycol ether To produce a suitable preparation of active compound, 1 part by weight of active compound is mixed with the stated amounts of solvent and emulsifier, and the concentrate is diluted with emulsifier-containing water to the desired concentration. Cabbage leaves (Brassica oleracea) which are heavily infested by peach aphids (Myzus persicae) are treated by being dipped into the preparation of active compound of the desired concentration. After the desired period of time, the kill in % is determined. 100% means that all aphids have been killed; 0% means that none of the aphids have been killed.

[2] = system: larvae of the mustard beetle (Phaedon cochleariae); experiment: Phaedon larvae test (cabbage leaf dip); format: in vivo; conditions: 100 ppm active compound, cabbage leaves dipped
Protocol: Phaedon larvae test Solvent: 7 parts by weight of dimethylformamide Emulsifier: 1 part by weight of alkylaryl polyglycol ether To produce a suitable preparation of active compound, 1 part by weight of active compound is mixed with the stated amounts of solvent and emulsifier, and the concentrate is diluted with emulsifier-containing water to the desired concentration. Cabbage leaves (Brassica oleracea) are treated by being dipped into the preparation of active compound of the desired concentration and are populated with larvae of the mustard beetle (Phaedon cochleariae) while the leaves are still moist. After the desired period of time, the kill in % is determined. 100% means that all beetle larvae have been killed; 0% means that none of the beetle larvae have been killed.

Meloidogyne incognita = experiment: Meloidogyne test (gall formation on lettuce roots); format: in vivo; conditions: 20 ppm active compound, nematicidal action by gall formation on lettuce
Protocol: Meloidogyne test Solvent: 7 parts by weight of dimethylformamide Emulsifier. 1 part by weight of alkylaryl polyglycol ether To produce a suitable preparation of active compound, 1 part by weight of active compound is mixed with the stated amounts of solvent and emulsifier, and the concentrate is diluted with water to the desired concentration. Vessels are filled with sand, solution of active compound, Meloidogyne incognita egg/larvae suspension and lettuce seeds. The lettuce seeds germinate and the plants develop. On the roots, galls develop. After the desired period of time, the nematicidal action is determined in % by the formation of galls. 100% means that no galls have been found; 0% means that the number of galls on the treated plants corresponds to that of the untreated control.

Row | SMILES | melting point | Kill rate in % after 6 d ([1]; 1000 ppm active compound) | also measured
1 | Cc1cc(C)c(C2=C(O)C3(CCC(C(F)(F)F)CC3)NC2=O)c(C)c1 (stereo not shown) [Example I-1-a-1] |  |  | Kill rate in % at active compound concentrations in ppm (Myzus persicae): 1.25 ppm = 100%
2 | Cc1ccc(Br)c(C2=C(O)C3(CCC(C(F)(F)F)CC3)NC2=O)c1 (stereo not shown) [Example I-1-a-7] | 212 °C |  | 
3 | Cc1cc(C)c(C2=C(OC(=O)C(C)C)C3(CCC(C(F)(F)F)CC3)NC2=O)c(C)c1 (stereo not shown) [Example I-1-b-1] |  | 95% | Kill rate in % after 7 d [2]: 100%
4 | CCOC(=O)OC1=C(c2c(C)cc(C)cc2C)C(=O)NC12CCC(C(F)(F)F)CC2 (stereo not shown) [Example I-1-c-1] |  | 100% | 
5 | Cc1ccc(C)c(C2=C(O)C3(CCC(C(F)(F)F)CC3)OC2=O)c1 (stereo not shown) [Example I-2-a-1] |  |  | Kill rate in % after 7 d (Meloidogyne incognita): 90%
6 | Cc1cc(C)c(C2=C(O)C3(CCC(C(F)(F)F)CC3)OC2=O)cc1C (stereo not shown) [Example I-2-a-2] | 212 to 214 °C | 100% | 
7 | Cc1cc(C)c(C2=C(O)C3(CCC(C(F)(F)F)CC3)OC2=O)c(C)c1C (stereo not shown) [Example I-2-a-3] | 159 to 161 °C |  | 

Now from value to compound, other results behind:

Row | melting point | SMILES | Kill rate in % after 6 d ([1]; 1000 ppm active compound) | also measured
8 | 245 °C | Cc1ccc(C)c(C2=C(O)C3(CCC(C(F)(F)F)CC3)NC2=O)c1 (stereo not shown) [Example I-1-a-2] |  | 
9 | 175 °C | Cc1cc(C)c(C2=C(O)C3(CCC(C(F)(F)F)CC3)NC2=O)cc1C (stereo not shown) [Example I-1-a-3] | 80% | 
10 | > 250 °C | Cc1cc(Cl)c(C2=C(O)C3(CCC(C(F)(F)F)CC3)NC2=O)c(Cl)c1 (stereo not shown) [Example I-1-a-4] |  | 
11 | > 250 °C | Cc1cc(C)c(C2=C(O)C3(CCC(C(F)(F)F)CC3)NC2=O)c(C)c1C (stereo not shown) [Example I-1-a-5] |  | Kill rate in % after 6 d ([1]; 100 ppm active compound): 100%
12 | > 248 °C | Cc1cc(Cl)cc(C)c1C1=C(O)C2(CCC(C(F)(F)F)CC2)NC1=O (stereo not shown) [Example I-1-a-6] |  | 
